Source: ChEMBL document CHEMBL1212815, “Quinolines and structurally related heterocycles as antimalarials” (Eur J Med Chem, 2010)
Converted amounts (≈) assume the structure as drawn. Each block holds one compound with its values, some of them ahead of it. The source made the active and inactive calls. The calls are words filed in the database; no cut-off is given here.

Legend:
Plasmodium berghei [1] = assay: Antiplasmodial activity against Plasmodium berghei infected in perorally dosed mice (Mus musculus); format: functional, organism-based
[2] = Inhibition of Plasmodium falciparum DHFR
Plasmodium falciparum [3] = assay: Antimalarial activity against chloroquine-resistant Plasmodium falciparum; format: functional, organism-based
Plasmodium falciparum [4] = assay: Antimalarial activity against chloroquine-resistant Plasmodium falciparum W2; format: functional, organism-based
Plasmodium falciparum [5] = assay: Antimalarial activity against chloroquine-resistant Plasmodium falciparum D10; format: functional, organism-based
Plasmepsin II = Plasmepsin II (Plasmodium falciparum, UniProt P46925); assay: Inhibition of Plasmodium falciparum plasmepsin-2
Plasmodium falciparum [6] = assay: Antimalarial activity against chloroquine-resistant Plasmodium falciparum HB3; format: functional, organism-based
Plasmodium falciparum [7] = assay: Antimalarial activity against chloroquine-resistant Plasmodium falciparum Dd2; format: functional, organism-based
Plasmodium falciparum [8] = assay: Antimalarial activity against Plasmodium falciparum; format: functional, organism-based
[9] = Dissociation constant, pKa of the compound; format: physicochemical
Plasmodium falciparum [10] = assay: Antimalarial activity against chloroquine-resistant Plasmodium falciparum K1; format: functional, organism-based
Plasmodium falciparum [11] = assay: Antimalarial activity against chloroquine-sensitive Plasmodium falciparum; format: functional, organism-based
[12] = Inhibition of Plasmodium falciparum falcipain-2
Plasmodium berghei [13] = assay: Antiplasmodial activity against Plasmodium berghei infected in mice (Mus musculus) assessed as suppression of parasitaemia at 100 mg/kg, po; format: functional
[14] = Toxicity in mouse assessed as maximum tolerated dose; format: organism-based; conditions: in vivo, read-out: Activity
Plasmodium falciparum [15] = assay: Antimalarial activity against chloroquine-resistant Plasmodium falciparum FcB1; format: functional, organism-based; conditions: FcB1/Columbia
Plasmodium vinckei = assay: Antiplasmodial activity against Plasmodium vinckei infected in mice (Mus musculus) assessed as reduction in parasitemia measured per day for 4 days; format: functional; conditions: 96 h
Plasmodium falciparum [16] = assay: Antimalarial activity against Plasmodium falciparum FAC8; format: functional, organism-based
Plasmodium falciparum [17] = assay: Selectivity index, ratio of IC50 for Plasmodium falciparum D6 to IC50 for Plasmodium falciparum W2; format: functional
Plasmodium falciparum [18] = assay: Antimalarial activity against chloroquine-resistant Plasmodium falciparum 3D7; format: functional, organism-based; conditions: read-out: ED50 (the source's name)
[19] = Inhibition of Plasmodium falciparum protein farnesyltransferase
Plasmodium chabaudi = assay: Antiplasmodial activity against Plasmodium chabaudi infected in mice (Mus musculus) assessed as reduction in parasitaemia measured at 50 mg/kg, perorally daily for 4 days; format: functional, organism-based; parameters: dose 50 mg/kg

Chain of Plasmepsin II (P46925 whole entry): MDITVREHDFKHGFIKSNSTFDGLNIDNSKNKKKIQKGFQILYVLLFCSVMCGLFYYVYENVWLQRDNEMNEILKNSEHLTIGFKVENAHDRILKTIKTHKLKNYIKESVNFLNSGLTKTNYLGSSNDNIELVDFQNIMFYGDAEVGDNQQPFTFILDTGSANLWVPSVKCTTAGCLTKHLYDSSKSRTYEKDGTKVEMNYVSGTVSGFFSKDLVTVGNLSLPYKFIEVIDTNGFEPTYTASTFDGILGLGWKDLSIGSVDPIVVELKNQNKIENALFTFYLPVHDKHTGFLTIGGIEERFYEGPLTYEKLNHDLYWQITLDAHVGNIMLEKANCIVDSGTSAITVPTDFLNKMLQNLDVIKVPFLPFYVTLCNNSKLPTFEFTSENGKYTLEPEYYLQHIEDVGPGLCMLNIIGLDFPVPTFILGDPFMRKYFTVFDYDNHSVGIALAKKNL

Structure (SMILES): CC(C)(C)NCc1cc(Nc2ccnc3cc(Cl)ccc23)ccc1F
ED50 (Plasmodium berghei [1]; Plasmodium berghei): 5.3 mg/kg

IC50 [2]: 0.4 ng/mL (≈ 0.000798 µM)
Structure (SMILES): Cc1cc(NC(=O)CN2CCN(C)CC2)c2cc(NC(=O)Nc3cc(Cl)cc(Cl)c3)ccc2n1

Structure (SMILES): Clc1ccc2c(N[C@H]3CCN4CCCC[C@@H]4C3)ccnc2c1
IC50 (Plasmodium falciparum [3]): 21 nM
IC50 (Plasmodium falciparum [4]): 23.3 nM

IC50 (Plasmodium berghei [1]; Plasmodium berghei): 18.1 nM
Structure (SMILES): CCN(CC)Cc1cc(N)cc(Nc2ccnc3cc(Cl)ccc23)c1

Structure (SMILES): CN(C)CCCN(CCCN(C)C)CCCN1c2ccccc2Sc2ccc(Cl)cc21
IC50 (Plasmodium falciparum [5]): 120 nM

IC50 (Plasmodium berghei [1]; Plasmodium berghei): 1.06 µg/mL
Structure (SMILES): OC1(C(F)(F)F)CC(c2ccccc2)=NN1c1ccnc2cc(Cl)ccc12 (stereo not given)

Structure (SMILES): O=C(CN(CCCNc1ccnc2cc(Cl)ccc12)C(=O)c1ccncc1)NC1CCCCC1
IC50 (Plasmodium falciparum [3]): 73 nM

IC50 (Plasmepsin II): 0.59 nM
Structure (SMILES): CCCCNC(=O)C[C@H](O)[C@H](CC(C)C)NC(=O)[C@@H](NC(=O)c1ccc(Oc2ccc(C(=O)N[C@@H](CC(C)C)C(=O)N[C@@H](CCCCN)C(=O)NCCCC(C)Nc3cc(OC)cc4cccnc34)cc2)cc1)[C@@H](C)CC (stereo not given in full)

Structure (SMILES): CCN(CCNc1ccnc2cc(Cl)ccc12)CCNS(=O)(=O)c1ccc2c(N(C)C)cccc2c1
IC50 (Plasmodium falciparum [6]): 17.5 nM
IC50 (Plasmodium falciparum [7]): 22.7 nM

Structure (SMILES): O=C1CCSC(c2ccc(Cl)cc2)N1CCCNc1ccnc2cc(Cl)ccc12 (stereo not given)
IC50 (Plasmodium falciparum [3]): 13 nM

Structure (SMILES): O=C1CSC(c2c(Cl)cccc2Cl)N1CCNc1ccnc2cc(Cl)ccc12 (stereo not given)
IC50 (Plasmodium falciparum [3]): 13 nM

IC50 (Plasmodium falciparum [8]; Plasmodium falciparum): 2.9 µg/mL
IC90 (Plasmodium falciparum [8]; Plasmodium falciparum): 6.5 µg/mL (≈ 19.1 µM)
Structure (SMILES): N=C(N)c1ccc(OCCCCCOc2ccc(C(=N)N)cc2)cc1 [PENTAMIDINE]

IC50 [2]: 0.4 ng/mL (≈ 0.000972 µM)
Structure (SMILES): Cc1cc(NC(=O)c2ccco2)c2cc(NC(=O)Nc3cccc(C#N)c3)ccc2n1

Structure (SMILES): C1CC2CCC1CN2 [ISOQUINUCLIDINE]
pKa [9]: 11

Structure (SMILES): CCN(CC)Cc1ccc(Nc2ccnc3cc(Cl)ccc23)cc1O [ISOQUINE]
IC50 (Plasmodium falciparum [10]): 6.01 nM

Structure (SMILES): Clc1ccc2c(NC[C@H]3CCN4CCCC[C@@H]4C3)ccnc2c1
IC50 (Plasmodium falciparum [3]): 21 nM

Structure (SMILES): Clc1ccc2c(N3CCN(CCCN4CCN(c5ccnc6cc(Cl)ccc56)CC4)CC3)ccnc2c1 [PIPERAQUINE]
IC50 (Plasmodium falciparum [11]): 36 nM

IC50 (Plasmodium berghei [1]; Plasmodium berghei): 1.39 µg/mL
Structure (SMILES): OC1(C(F)(F)F)CC(c2ccc(Cl)cc2)=NN1c1ccnc2cc(Cl)ccc12 (stereo not given)

IC50 [12]: 17.7 µM
Structure (SMILES): CC1(C(=O)NC2CCCCC2)CCCC(=O)N1CCCCCCNc1ccnc2cc(Cl)ccc12 (stereo not given)

IC50 (Plasmodium falciparum [8]; Plasmodium falciparum): 19 µM
Structure (SMILES): COc1cc2cc(/C=C/C(=O)c3ccc(Cl)cc3Cl)c(Cl)nc2cc1OC

Structure (SMILES): Clc1ccc2c(NCC[C@H]3CCN4CCCC[C@@H]4C3)ccnc2c1
IC50 (Plasmodium falciparum [3]): 21 nM

Structure (SMILES): O=C1c2ccccc2SCN1CCNc1ccnc2cc(Cl)ccc12
IC50 (Plasmodium falciparum [3]): 13 nM

Structure (SMILES): CCC(=O)CCCCC[C@@H]1NC(=O)[C@H]2CCCCN2C(=O)[C@H]([C@H](C)CC)NC(=O)[C@H](c2c[nH]c3ccccc3c2=O)NC1=O
IC50 (Plasmodium falciparum [11]): 0.04 µg/mL
IC50 (Plasmodium falciparum [3]): 0.04 µg/mL

IC50 (Plasmodium berghei [1]; Plasmodium berghei): 1.39 µg/mL
Structure (SMILES): OC1(C(F)(F)F)CC(c2ccc(Br)cc2)=NN1c1ccnc2cc(Cl)ccc12 (stereo not given)

Structure (SMILES): COc1cc(NC(C)CCCN)c2nc(C(C)(C)C)ccc2c1 (stereo not given)
Activity (Plasmodium berghei [13]): 100%

Structure (SMILES): O=C(NCCNc1ccnc2cc(Cl)ccc12)C1CCC2(CC1)OOC1(CCCCC1)OO2
Activity (Plasmodium berghei [1]): 80 mg/kg
MTD [14]: > 960 mg/kg

IC50 (Plasmodium falciparum [8]; Plasmodium falciparum): 2.56 µg/mL
Structure (SMILES): CCOC(=O)c1c(CN2CCCCC2)nc2ccc(Cl)cc2c1-c1ccccc1

Structure (SMILES): CC(C)C1=C[C@H]2OC3(CCC(NCCNc4ccnc5cc(Cl)ccc45)CC3)OO[C@@]2(C)CC1.O=C(O)CC(O)(CC(=O)O)C(=O)O (stereo not given in full)
IC50 (Plasmodium falciparum [15]): 15 nM
ED50 (Plasmodium vinckei): 5 mg/kg

IC50 (Plasmodium falciparum [16]): 120 nM
Structure (SMILES): CCN(CC)CCCC(C)Nc1ccnc2c(NC(=O)CCCCC(=O)Nc3cccc4c(NC(C)CCCN(CC)CC)ccnc34)cccc12 (stereo not given)

MIC (Plasmodium falciparum [8]; Plasmodium falciparum): 2 µg/mL (≈ 4.4 µM)
Structure (SMILES): CN(CC(O)CNCc1ccc(Cl)c(Cl)c1)S(=O)(=O)c1cccc2cnccc12 (stereo not given)

Structure (SMILES): COc1cc2cc(/C=C3\CCc4c(OC)cccc4C3=O)c(Cl)nc2cc1OC
inhibition (INH) (Plasmodium falciparum [8]): 50%

Structure (SMILES): CCCCCOc1c(OC)cc(NC(C)CCCN)c2nccc(CC)c12 (stereo not given)
IC50 (Plasmodium falciparum [11]): 0.0094 µg/mL
IC50 (Plasmodium falciparum [3]): 0.0097 µg/mL

Structure (SMILES): CN1CC2CCC1C(CNc1ccnc3cc(Cl)ccc13)C2 (stereo not given)
Ratio IC50 (Plasmodium falciparum [17]): >1200

Structure (SMILES): Clc1ccc2c(N3CCNCC3)ccnc2c1
IC50 (Plasmodium falciparum [11]): 1020 nM
IC50 (Plasmodium falciparum [3]): 1020 nM

Structure (SMILES): Clc1ccc2c(NCCNCC3CCC4(CC3)OOC3(CCCCC3)OO4)ccnc2c1
Activity (Plasmodium berghei [1]): 80 mg/kg
MTD [14]: > 960 mg/kg

Structure (SMILES): Clc1ccc2c(N3CCN(Cc4ccccc4Br)CC3)ccnc2c1
IC50 (Plasmodium falciparum [3]): 11400 nM

IC50 (Plasmodium falciparum [8]; Plasmodium falciparum): 4.47 µg/mL
Structure (SMILES): CCOC(=O)c1c(C)nc2ccc(Cl)cc2c1-c1ccccc1

Structure (SMILES): Cn1cnc(S(=O)(=O)N(Cc2ccccc2)C2Cc3cc(C#N)ccc3N(Cc3cncn3C)C2)c1 (stereo not given)
EC50 (Plasmodium falciparum [18]): 5 nM
IC50 [19]: 0.6 nM

Structure (SMILES): Clc1ccc2c(NCCC[C@H]3CCN4CCCC[C@@H]4C3)ccnc2c1
IC50 (Plasmodium falciparum [3]): 21 nM

Structure (SMILES): Clc1cccc(C(Nc2ccnc3cc(Cl)ccc23)c2ccc(CN3CCCC3)cc2)c1 (stereo not given)
Activity (Plasmodium chabaudi): Active
